# Laboratory results: ChEMBL document CHEMBL1201862, “PubChem BioAssay data set” (2004)
# Activity calls are given as the source filed them.
# Key:
# [1] = target: Aryl hydrocarbon receptor (Homo sapiens, UniProt P35869); conditions: Potency;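 further: confirmatory quantitative high-throughput screen measuring activation of the AhR signaling pathway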
# [2] = Counterscreen for inhibitors of Trypanosoma brucei methionyl tRNA synthetase (MetRS): Luminescence-based cell-based high throughput dose response assay to identify compounds that are cytotoxic to Jurkat human T lymphocyte cells.; assay type: functional
# [3] = target: T1, Methionyl-tRNA synthetase, putative (Trypanosoma brucei brucei, UniProt Q38C91); assay type: functional, Trypanosoma brucei brucei strain 927/4 GUTat10.1
# T1 sequence (Q38C91 whole entry): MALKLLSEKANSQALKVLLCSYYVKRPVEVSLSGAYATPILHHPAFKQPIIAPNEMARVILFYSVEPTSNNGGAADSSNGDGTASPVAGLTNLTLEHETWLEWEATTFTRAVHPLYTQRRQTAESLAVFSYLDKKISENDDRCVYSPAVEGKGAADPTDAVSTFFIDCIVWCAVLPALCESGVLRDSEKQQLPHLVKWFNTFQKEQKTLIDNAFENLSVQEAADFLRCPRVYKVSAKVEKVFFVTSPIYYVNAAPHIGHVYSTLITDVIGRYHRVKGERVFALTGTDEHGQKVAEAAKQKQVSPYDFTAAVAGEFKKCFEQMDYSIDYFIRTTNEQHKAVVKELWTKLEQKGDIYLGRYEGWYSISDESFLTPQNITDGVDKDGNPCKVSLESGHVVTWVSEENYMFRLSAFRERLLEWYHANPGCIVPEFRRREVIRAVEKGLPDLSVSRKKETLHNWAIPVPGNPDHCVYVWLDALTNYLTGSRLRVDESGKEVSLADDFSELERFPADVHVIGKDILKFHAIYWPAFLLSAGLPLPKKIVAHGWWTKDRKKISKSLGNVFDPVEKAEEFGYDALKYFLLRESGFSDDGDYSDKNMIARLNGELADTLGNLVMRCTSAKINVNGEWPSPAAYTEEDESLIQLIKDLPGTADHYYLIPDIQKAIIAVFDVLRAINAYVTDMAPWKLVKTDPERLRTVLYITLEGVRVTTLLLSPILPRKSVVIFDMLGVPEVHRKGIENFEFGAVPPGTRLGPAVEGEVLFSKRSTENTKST
# [4] = target: T1, Methionyl-tRNA synthetase, putative; assay type: functional, Trypanosoma brucei brucei strain 927/4 GUTat10.1; remark: listed apart in the source
# [5] = NIH3T3 cell viability loss – ATP luminescence, mouse fibroblasts, counter-screen, dose response (AID 2010); assay type: functional, cell-based;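 further: cells exposed to compound for about 90 hours before reading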
# [6] = Trypanosoma cruzi growth suppression in host cells – NIH3T3 host cells, beta-gal luminescence, confirmation (AID 2044); assay type: functional, cell-based;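 further: intracellular parasites grown in NIH/3T3 mouse fibroblasts as host cells; luminescent beta-galactosidase reporter signal from transgenic T. cruzi replicating inside host cells; inhibitors lower the luminescence signal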
# Paired box protein Pax-8 = Paired box protein Pax-8 (Homo sapiens, UniProt Q06710); assay: PAX8 transcriptional activity inhibition in RMG-I – RMG-I cells, luciferase, cherry-pick, dose response (AID 687027); assay type: functional, cell-based;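 further: luciferase reporter driven by Pax8 target thyroperoxidase promoter measured by SteadyGlo luminescence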
# [7] = reduced cellular PGC1a acetyl-lysine signal – cell-based, cherry-picked samples, dose response (AID 720514); assay type: functional;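 further: potency may reflect raised or lowered acetylation signal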
# [8] = loss of viability in HepG2 cells – cell-based, CellTiter-Glo, cherry-picked, cytotoxicity control for Shn3 inhibitor project, dose response (AID 624134); assay type: functional
# [9] = non-specific 3'UTR reporter inhibition in Clone20-Shn3RL – cell-based, Renilla luciferase, cherry-picked, counter-screen for Shn3 inhibitor project, dose response (AID 624133); assay type: functional
# [10] = reduction of Shn3 3'UTR-driven luciferase in osteoblasts – cell-based, Clone20 osteoblasts, firefly luciferase, cherry-picked, dose response (AID 624132); assay type: functional;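 further: firefly luciferase luminescence from reporter carrying the Shn3 3'UTR in osteoblasts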
# Melanocortin receptor 4 = Melanocortin receptor 4 (Homo sapiens, UniProt P32245); assay type: functional, cell-based;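 further: Cell-based assay with luminescence read-out, confirmatory dose-response testing for agonist activity of biased ligands at MC4R; human U2OS cells with tagged receptor and beta-arrestin; potency of agonists that increase receptor coupling to beta-arrestin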
# [11] = general cell-killing toxicity readout – plate reader, dry powder samples, cytotoxicity control for PAX8 inhibitor project, dose response (AID 743021); assay type: functional, cell-based
# [12] = target: T2, Trace amine-associated receptor 1 (Homo sapiens, UniProt Q96RJ0); assay: Fluorescence-based cell-based high throughput dose response assay to identify agonists of the human trace amine associated receptor 1 (TAAR1).; assay type: functional
# T2 sequence (Q96RJ0 whole entry): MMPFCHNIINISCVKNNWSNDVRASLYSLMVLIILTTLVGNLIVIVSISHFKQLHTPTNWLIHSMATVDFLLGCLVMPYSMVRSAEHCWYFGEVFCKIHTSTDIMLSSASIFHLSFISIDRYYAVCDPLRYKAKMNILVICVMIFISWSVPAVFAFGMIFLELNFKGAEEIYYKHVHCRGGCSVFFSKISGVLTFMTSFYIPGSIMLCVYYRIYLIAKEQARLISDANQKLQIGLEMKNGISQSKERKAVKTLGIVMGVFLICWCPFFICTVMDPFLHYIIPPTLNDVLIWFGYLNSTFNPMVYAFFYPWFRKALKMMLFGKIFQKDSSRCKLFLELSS
# cells [13] = assay type: functional, cell-based
# [14] = target: T2, Trace amine-associated receptor 1; assay: Counterscreen for agonists of the human trace amine associated receptor 1 (hTAAR1): Fluorescence-based cell-based high throughput dose response assay to identify hTAAR1 agonist that also desensitize TAAR1 receptor response.; assay type: functional
# cells [15] = assay type: functional, cell-based; remark: listed apart in the source
# [16] = target: Adenosylmethionine-8-amino-7-oxononanoate aminotransferase (Mycobacterium tuberculosis, UniProt P9WQ81); assay: Mycobacterium tuberculosis BioA enzyme inhibitor Measured in Biochemical System Using Plate Reader - 2163-02_Inhibitor_Dose_CherryPick_Activity.; assay type: functional, Mycobacterium tuberculosis UT205
# [17] = target: Fructose-bisphosphate aldolase (Mycobacterium tuberculosis, UniProt P9WQA3); assay: Fluorescence-based biochemical high throughput dose response assay for inhibitors of the fructose-bisphosphate aldolase (FBA) of M. tuberculosis.; assay type: functional
# Chain of Fructose-bisphosphate aldolase (P9WQA3 whole entry): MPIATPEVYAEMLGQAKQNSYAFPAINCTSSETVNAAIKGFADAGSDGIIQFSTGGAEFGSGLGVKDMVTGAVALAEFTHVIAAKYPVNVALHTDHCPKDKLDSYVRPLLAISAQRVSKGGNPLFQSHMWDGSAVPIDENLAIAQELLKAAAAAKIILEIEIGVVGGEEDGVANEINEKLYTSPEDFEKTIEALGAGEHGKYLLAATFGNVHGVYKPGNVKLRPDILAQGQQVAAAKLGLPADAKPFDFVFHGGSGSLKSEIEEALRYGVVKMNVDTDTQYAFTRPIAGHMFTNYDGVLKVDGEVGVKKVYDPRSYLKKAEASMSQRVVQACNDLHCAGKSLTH
# Chain of Adenosylmethionine-8-amino-7-oxononanoate aminotransferase (P9WQ81 whole entry): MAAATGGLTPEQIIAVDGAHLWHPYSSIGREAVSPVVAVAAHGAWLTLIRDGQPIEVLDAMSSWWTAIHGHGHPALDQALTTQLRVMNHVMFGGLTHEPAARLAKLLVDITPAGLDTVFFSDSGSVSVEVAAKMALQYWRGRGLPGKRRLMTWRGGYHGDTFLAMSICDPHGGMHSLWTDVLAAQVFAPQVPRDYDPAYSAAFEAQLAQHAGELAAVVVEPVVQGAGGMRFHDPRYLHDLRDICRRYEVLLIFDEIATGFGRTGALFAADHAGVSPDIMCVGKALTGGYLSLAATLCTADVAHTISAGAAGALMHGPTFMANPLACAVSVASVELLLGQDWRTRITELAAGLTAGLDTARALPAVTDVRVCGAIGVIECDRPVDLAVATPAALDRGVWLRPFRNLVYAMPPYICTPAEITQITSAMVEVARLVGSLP
# Chain of Aryl hydrocarbon receptor (P35869 whole entry): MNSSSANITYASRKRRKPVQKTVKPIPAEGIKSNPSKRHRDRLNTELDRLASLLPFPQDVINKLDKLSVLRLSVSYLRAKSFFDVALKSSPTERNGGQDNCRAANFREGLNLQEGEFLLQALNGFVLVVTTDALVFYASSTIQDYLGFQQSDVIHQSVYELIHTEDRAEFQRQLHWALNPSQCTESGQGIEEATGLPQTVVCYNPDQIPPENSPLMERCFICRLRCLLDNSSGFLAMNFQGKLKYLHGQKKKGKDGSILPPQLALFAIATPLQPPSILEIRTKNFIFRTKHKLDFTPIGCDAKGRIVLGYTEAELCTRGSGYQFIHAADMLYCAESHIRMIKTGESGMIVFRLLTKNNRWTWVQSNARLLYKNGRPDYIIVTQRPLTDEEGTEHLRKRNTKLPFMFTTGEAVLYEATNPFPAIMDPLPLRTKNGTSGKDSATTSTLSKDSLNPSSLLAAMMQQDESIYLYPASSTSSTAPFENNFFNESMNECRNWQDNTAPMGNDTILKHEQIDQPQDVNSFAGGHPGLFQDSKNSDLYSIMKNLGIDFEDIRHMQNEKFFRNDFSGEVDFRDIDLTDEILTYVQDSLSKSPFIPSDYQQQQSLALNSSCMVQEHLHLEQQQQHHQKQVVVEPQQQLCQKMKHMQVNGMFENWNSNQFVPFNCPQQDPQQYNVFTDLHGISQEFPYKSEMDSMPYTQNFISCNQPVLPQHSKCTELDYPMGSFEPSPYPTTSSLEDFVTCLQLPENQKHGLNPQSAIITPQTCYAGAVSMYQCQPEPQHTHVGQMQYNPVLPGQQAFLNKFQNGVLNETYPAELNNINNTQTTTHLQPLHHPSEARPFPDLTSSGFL
# Chain of Melanocortin receptor 4 (P32245 whole entry): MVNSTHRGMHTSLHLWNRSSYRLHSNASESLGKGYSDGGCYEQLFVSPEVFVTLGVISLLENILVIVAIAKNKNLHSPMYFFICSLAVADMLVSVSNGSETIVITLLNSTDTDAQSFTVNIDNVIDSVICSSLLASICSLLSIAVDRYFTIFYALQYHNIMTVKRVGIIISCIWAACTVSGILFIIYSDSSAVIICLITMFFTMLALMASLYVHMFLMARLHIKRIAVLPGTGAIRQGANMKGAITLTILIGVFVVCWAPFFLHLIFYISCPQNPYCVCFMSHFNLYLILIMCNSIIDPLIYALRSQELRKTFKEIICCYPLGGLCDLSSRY
# Chain of Paired box protein Pax-8 (Q06710 whole entry): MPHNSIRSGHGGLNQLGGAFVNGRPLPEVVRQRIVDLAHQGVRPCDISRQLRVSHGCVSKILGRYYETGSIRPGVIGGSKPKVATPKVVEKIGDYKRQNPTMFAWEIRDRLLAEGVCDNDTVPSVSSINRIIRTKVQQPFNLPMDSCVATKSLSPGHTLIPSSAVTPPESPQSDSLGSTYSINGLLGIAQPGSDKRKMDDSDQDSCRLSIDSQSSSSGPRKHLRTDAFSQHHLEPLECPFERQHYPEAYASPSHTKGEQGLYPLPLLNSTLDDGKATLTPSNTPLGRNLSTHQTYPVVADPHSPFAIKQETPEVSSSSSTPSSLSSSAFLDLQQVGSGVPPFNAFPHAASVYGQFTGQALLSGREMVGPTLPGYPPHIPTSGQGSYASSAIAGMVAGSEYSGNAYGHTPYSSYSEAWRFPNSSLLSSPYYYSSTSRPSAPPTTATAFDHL
smiles,measurement,setting,value
"O=P(OCC(Br)CBr)(OCC(Br)CBr)OCC(Br)CBr (centres undefined) [TRIS(2,3-DIBROMOPROPYL)PHOSPHATE]",AC50,[1],56.2 µM (inconclusive)
S=C(NCCSCc1ccc(Cl)cc1)Nc1ccccc1,IC50,[2],83.3 µM (inactive)
same,IC50,[3],8.52 µM (active)
same,IC50,[4],11.7 µM (inactive)
O=C(CCNS(=O)(=O)c1ccc(Br)s1)Nc1ccc(Cl)cc1,IC50,[2],83.3 µM (inactive)
same,EC50,[5],> 60 µM (inconclusive)
same,IC50,[3],3.53 µM (active)
same,IC50,[4],1.85 µM (active)
same,EC50,[6],3.44 µM (active)
CCN1CCN(Cc2ccc(NC(=O)c3cc(NC(=O)c4cncc(-c5ccc(C#N)cc5)c4)cc(OC)c3)cc2C(F)(F)F)CC1,AC50,Paired box protein Pax-8,7.76 µM (active)
same,AC50,[7],6.66 µM (active)
same,AC50,[8],8.15 µM (active)
same,AC50,[9],7.18 µM (active)
same,AC50,[10],3.36 µM (active)
same,EC50,Melanocortin receptor 4,> 89.2 µM (inactive)
same,AC50,[11],48.2 µM (active)
CC1=C(NCCc2ccccc2)CCC1=O,EC50,[12],1.16 µM (active)
same,EC50,cells [13],> 29.9 µM (inactive)
same,IC50,[14],5.79 µM (active)
same,IC50,cells [15],> 29.9 µM (inactive)
CCNC(=O)[C@H]1[C@H](CO)[C@H]2Cn3c(ccc(-c4cccc(F)c4)c3=O)[C@H]2N1C(=O)Cc1cccnc1,AC50,[16],17 µM (active)
COc1ccc(OC)c2c1C(=O)CC2C (centres undefined),IC50,[17],2.23 µM (active)
O=C(Nc1ccccc1)Nc1cnns1 [THIDIAZURON],AC50,[1],50.1 µM (inconclusive)
O=C(Cc1ccccc1)N1CC[C@@H]2[C@H]1c1cc(Br)ccc1N[C@@H]2CO,AC50,[16],2.74 µM (active)
